Measurements as given in ChEMBL document CHEMBL4602667, “An NMR-Based Chemometric Strategy to Identify Leishmania donovani Nucleoside Hydrolase Inhibitors from the Brazilian Tree Ormosia arborea” (J Nat Prod, 2020).
Calls of active or inactive are those of the source. The rule behind the calls is not given here.

How the values were obtained:
[1] = Inhibition of recombinant Leishmania donovani C-terminal His6-tagged Nucleoside hydrolase expressed in Escherichia coli BL21(DE3) cells assessed as reduction in uric acid formation by coupled assay
Leishmania donovani = experiment: Reversible inhibition of recombinant Leishmania donovani C-terminal His6-tagged Nucleoside hydrolase expressed in Escherichia coli BL21(DE3) cells assessed recovery of enzyme activity at 10 times of IC50 preincubated for 20 mins followed by inosine addition by jump dilution experiment based assay
[2] = Noncompetitive inhibition of recombinant Leishmania donovani C-terminal His6-tagged Nucleoside hydrolase expressed in Escherichia coli BL21(DE3) cells assessed as decrease in Vmax using 0.01 to 3 mM of inosine as substrate preincubated for 20 mins followed by inosine addition

Row | IC50 [1] [µM] | SMILES | inhibition (Leishmania donovani) | Ki [2] [µM]
1 | 25.6 | O=C(/C=C/c1ccc(O)cc1)O[C@@H]1Cc2c(O)cc3c(c2O[C@@H]1c1ccc(O)c(O)c1)[C@H]1c2c(O)cc(O)cc2O[C@@](c2ccc(O)c(O)c2)(O3)[C@@H]1O | Active | 21.2
2 | 28.2 | O=C(/C=C/c1ccc(O)cc1)O[C@@H]1Cc2c(O)cc3c(c2O[C@@H]1c1ccc(O)c(O)c1)[C@H]1c2c(O)cc(O)cc2O[C@@](c2cc(O)c(O)c(O)c2)(O3)[C@@H]1O | Active | 27.9
